Data as given in publication PMC10944877, “Identification of dihydromyricetin as a natural DNA methylation inhibitor with rejuvenating activity in human skin” (Frontiers in Aging, 2024).

How the values were obtained:
DNMT1 [1] = molecular target: T1, DNMT1 (Homo sapiens, UniProt P26358); assay: scintillation proximity methylation assay (SPA) screen with purified DNMT1; IC50 in Supplementary Figure S1A; type: biochemical; design: full-length recombinant human DNMT1
DNMT1 [2] = molecular target: T1, DNMT1; assay: biochemical DNMT activity quantification kit (Abcam), three […] pure preparations, n = […]

T1 sequence (P26358 whole entry): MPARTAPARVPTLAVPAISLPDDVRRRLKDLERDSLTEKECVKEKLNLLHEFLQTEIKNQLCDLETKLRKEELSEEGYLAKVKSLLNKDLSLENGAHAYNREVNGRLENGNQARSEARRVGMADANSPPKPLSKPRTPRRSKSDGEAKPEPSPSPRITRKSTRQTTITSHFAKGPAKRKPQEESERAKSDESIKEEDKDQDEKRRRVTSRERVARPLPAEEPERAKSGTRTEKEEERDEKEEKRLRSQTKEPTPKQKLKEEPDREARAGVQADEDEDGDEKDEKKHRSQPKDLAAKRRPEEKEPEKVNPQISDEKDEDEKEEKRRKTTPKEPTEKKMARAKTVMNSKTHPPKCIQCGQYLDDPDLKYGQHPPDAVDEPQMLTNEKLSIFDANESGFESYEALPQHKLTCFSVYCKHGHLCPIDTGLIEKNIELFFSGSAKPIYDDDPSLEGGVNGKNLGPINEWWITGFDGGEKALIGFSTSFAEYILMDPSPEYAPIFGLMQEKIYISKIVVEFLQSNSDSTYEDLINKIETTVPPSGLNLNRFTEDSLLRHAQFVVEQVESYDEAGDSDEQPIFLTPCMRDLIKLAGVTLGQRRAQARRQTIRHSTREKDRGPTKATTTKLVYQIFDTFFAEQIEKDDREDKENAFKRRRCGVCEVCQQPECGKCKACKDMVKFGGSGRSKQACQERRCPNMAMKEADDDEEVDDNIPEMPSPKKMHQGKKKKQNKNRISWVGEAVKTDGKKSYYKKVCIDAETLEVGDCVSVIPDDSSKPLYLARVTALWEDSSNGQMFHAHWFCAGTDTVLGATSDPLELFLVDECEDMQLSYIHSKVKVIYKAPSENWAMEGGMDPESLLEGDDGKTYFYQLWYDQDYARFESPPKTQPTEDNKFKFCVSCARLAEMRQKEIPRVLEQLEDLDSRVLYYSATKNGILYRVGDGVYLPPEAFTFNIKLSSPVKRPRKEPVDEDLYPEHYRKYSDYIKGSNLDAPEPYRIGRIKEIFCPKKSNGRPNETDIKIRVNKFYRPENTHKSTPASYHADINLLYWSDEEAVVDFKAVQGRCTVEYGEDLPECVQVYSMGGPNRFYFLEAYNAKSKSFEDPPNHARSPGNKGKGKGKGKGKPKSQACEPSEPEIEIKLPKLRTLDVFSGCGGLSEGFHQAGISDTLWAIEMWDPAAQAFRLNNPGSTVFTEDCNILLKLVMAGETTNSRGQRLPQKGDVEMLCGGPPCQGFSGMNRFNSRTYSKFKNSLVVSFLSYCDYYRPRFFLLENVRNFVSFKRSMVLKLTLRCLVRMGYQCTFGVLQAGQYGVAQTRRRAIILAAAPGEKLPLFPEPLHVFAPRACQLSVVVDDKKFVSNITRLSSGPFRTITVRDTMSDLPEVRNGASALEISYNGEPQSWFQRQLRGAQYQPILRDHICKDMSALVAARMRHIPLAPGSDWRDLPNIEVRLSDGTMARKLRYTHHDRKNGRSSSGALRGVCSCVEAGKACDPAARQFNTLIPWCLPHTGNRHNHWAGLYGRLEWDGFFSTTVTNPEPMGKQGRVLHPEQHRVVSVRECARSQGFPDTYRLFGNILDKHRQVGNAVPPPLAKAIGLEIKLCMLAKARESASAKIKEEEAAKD

Structure (SMILES)	IC50 (DNMT1 [1]) [µM]	biochemical DNMT activity quantification kit (Abcam), three >95% pure preparatio (DNMT1 [2])
O=c1c(O)c(-c2cc(O)c(O)c(O)c2)oc2cc(O)cc(O)c12 [Myr, myricetin]	43.4	
O=C1c2c(O)cc(O)cc2O[C@H](c2cc(O)c(O)c(O)c2)[C@H]1O [DHM, 3,3′,4′,5,5’,7-hexahydroxy-2,3-dihydroflavanonol]		DNMT1 inhibitory activity for DHM in the similar concentration range like myricetin (Figure 1D; Supplementary Figure S1B)
